Measurements taken from US8426437B2, “Pyrroloquinoline derivatives and their use as protein kinases inhibitors” (Pierre Fabre Medicament, priority 2005, dated 2013).
Counter-ions that a name gives are not always drawn.

Biological target: T1, RET (Homo sapiens, UniProt P07949)
T1 construct: purchased Upstate 14-570MG
Experiment: Inhibition of RET kinase activity, recombinant RET method (Kinase-Glo)
Format: biochemical
Details: RET 2 μg/ml, poly-EY4 substrate, 20 μM ATP, two hours at 30° C.
Protocol: The inhibition of the kinase activity of the compounds of the invention is assessed by measuring their IC50 on RET.
where: • Y is the value of the luminescence • X is the logarithm of the concentration of the compound • Bottom is the minimum Y value • Top is the maximum Y value • LogIC50 is the value of X when Y is 50% from Top—Bottom.
The quantity of RET required is 2 μg/ml.
The following buffer is used for dilution of RET: 20 mM MOPS/NaOH pH7.0, 1 mM EDTA, 5% glycerol, 0.01% Brij35 (Sigma B4184), 0.1% 2-mercaptoethanol, 1 mg/ml BSA (Sigma A3059-10G).
The dilution of the compounds of the invention is distributed so as to obtain a scale of final concentrations between 10 nM and 30 μM.
After incubation of the reaction mixture for two hours at 30° C., the level of ATP that remains is assayed using the Kinase-Glo Luminescent Kinase Assay (Promega #V6712) according to the conditions recommended by the supplier. The luminescence induced is read in a plate reader (Envision-Perkin Elmer).

T1 sequence (P07949 29-1114): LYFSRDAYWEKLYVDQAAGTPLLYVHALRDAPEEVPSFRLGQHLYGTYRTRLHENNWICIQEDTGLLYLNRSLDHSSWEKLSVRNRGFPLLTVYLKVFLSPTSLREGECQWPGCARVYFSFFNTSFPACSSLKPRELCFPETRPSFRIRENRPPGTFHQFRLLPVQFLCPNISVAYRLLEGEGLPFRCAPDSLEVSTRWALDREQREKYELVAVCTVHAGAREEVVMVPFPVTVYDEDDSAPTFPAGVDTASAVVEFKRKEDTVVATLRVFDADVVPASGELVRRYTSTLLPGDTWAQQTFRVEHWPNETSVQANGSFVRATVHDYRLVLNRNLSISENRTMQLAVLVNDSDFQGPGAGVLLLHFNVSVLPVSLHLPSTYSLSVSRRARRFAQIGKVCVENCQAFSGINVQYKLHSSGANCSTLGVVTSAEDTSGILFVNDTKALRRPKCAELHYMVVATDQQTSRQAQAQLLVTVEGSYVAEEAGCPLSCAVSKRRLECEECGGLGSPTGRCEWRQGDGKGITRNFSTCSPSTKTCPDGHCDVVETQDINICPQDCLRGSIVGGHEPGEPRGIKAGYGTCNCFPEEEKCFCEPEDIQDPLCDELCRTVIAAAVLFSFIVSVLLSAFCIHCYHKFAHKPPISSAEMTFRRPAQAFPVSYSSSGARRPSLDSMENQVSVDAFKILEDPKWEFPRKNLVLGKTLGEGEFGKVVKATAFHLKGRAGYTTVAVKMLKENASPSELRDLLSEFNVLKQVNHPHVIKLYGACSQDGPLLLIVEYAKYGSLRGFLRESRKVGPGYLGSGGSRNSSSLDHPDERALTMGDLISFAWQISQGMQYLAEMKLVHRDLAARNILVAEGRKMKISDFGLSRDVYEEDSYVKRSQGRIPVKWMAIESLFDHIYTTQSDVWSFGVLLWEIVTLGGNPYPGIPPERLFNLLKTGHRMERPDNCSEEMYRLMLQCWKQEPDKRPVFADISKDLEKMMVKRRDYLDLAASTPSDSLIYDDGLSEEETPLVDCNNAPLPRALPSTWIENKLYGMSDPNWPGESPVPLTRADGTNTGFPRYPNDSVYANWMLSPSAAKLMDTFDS

| SMILES | IC50 [nM] |
| --- | --- |
| CCCOC(=O)c1c[nH]c2c(=O)[nH]c3ccc(S(=O)(=O)N(C)C4CC4)cc3c12 [Compound 125, 8-(Cyclopropyl-methyl-sulfamoyl)-4-oxo-4,5-dihydro-3H-pyrrolo[2,3-c]quinoline-1-propyl carboxylate] | < 100 |
| NC(=O)C1CCCN(S(=O)(=O)c2ccc3[nH]c(=O)c4[nH]cc(C(=O)O)c4c3c2)C1 (stereo not drawn) [Compound 180, 8-(3-Carbamoyl-piperidine-1-sulfonyl)-4-oxo-4,5-dihydro-3H-pyrrolo[2,3-c]quinoline-1-carboxylic acid] | 10000 to 100000 |
| COC(=O)c1c[nH]c2c(=O)[nH]c3ccccc3c12 [Compound 73, 4-Oxo-4,5-dihydro-3H-pyrrolo[2,3-c]quinoline-1-methyl carboxylate] | 1000 to 10000 |
| CCCOC(=O)c1c[nH]c2c(=O)[nH]c3ccc(S(=O)(=O)N(CC)[C@H]4CCNC4)cc3c12 [Compound 160, (S)-8-(Ethyl-pyrrolidin-3-yl-sulfamoyl)-4-oxo-4,5-dihydro-3H-pyrrolo[2,3-c]quinoline-1-propyl carboxylate hydrochloride] | < 100 |
| CCOC(=O)c1c[nH]c2c(=O)[nH]c3ccc(C#Cc4ccccn4)cc3c12 [Compound 202, 4-Oxo-8 pyridin-2-ylethynyl-4,5-dihydro-3H-pyrrolo[2,3-c]quinoline-1-ethyl carboxylate] | 1000 to 10000 |
| CCOC(=O)c1c[nH]c2c(=O)[nH]c3ccc(C#C[Si](C)(C)C)cc3c12 [Compound 200, 4-Oxo-8-trimethylsilanylethynyl-4,5-dihydro-3H-pyrrolo[2,3-c]quinoline-1-ethyl carboxylate] | 1000 to 10000 |
| CCCOC(=O)c1c[nH]c2c(=O)[nH]c3ccc(S(=O)(=O)N(C[C@@H](C)NC(=O)OC(C)(C)C)C4CC4)cc3c12 [Compound 154, (R)-8-[(2-tert-Butoxycarbonylamino-propyl)-cyclopropyl-sulfamoyl]-4-oxo-4,5-dihydro-3H-pyrrolo[2,3-c]quinoline-1-propyl carboxylate] | 1000 to 10000 |
| CCCOC(=O)c1c[nH]c2c(=O)[nH]c3ccc(S(=O)(=O)N(C)CC(=O)O)cc3c12 [Compound 182, 8-(Carboxymethyl-methyl-sulfamoyl)-4-oxo-4,5-dihydro-3H-pyrrolo[2,3-c]quinoline-1-propyl carboxylate] | 1000 to 10000 |
| CCCOC(=O)c1c[nH]c2c(=O)[nH]c3ccc(S(=O)(=O)N(C[C@H]4CCCN4C)C4CC4)cc3c12 [Compound 146, (R)-8-[Cyclopropyl-(1-methyl-pyrrolidin-2-ylmethyl)-sulfamoyl]-4-oxo-4,5-dihydro-3H-pyrrolo[2,3-c]quinoline-1-propyl carboxylate] | 100 to 1000 |
| CCCOC(=O)c1c[nH]c2c(=O)[nH]c3ccc(S(=O)(=O)N(C)CCN(C)C(=O)OC(C)(C)C)cc3c12 [Compound 140, 8-{[2-(tert-Butoxycarbonyl-methyl-amino)-ethyl]-methyl-sulfamoyl}-4-oxo-4,5-dihydro-3H-pyrrolo[2,3-c]quinoline-1-propyl carboxylate] | 1000 to 10000 |
| CCOC(=O)c1c[nH]c2c(=O)[nH]c3ccc(S(=O)(=O)Nc4ccc(F)c(F)c4)cc3c12 [Compound 18, 8-(3,4-Difluorophenylsulfamoyl)-4-oxo-4,5-dihydro-3H-pyrrolo[2,3-c]quinoline-1-ethyl carboxylate] | < 100 |
| CCOC(=O)CCNS(=O)(=O)c1ccc2[nH]c(=O)c3[nH]cc(C(=O)OCC)c3c2c1 [Compound 29, 8-(2-Ethoxycarbonyl-ethylsulfamoyl)-4-oxo-4,5-dihydro-3H-pyrrolo[2,3-c]quinoline-1-ethyl carboxylate] | 1000 to 10000 |
| CCOC(=O)c1c[nH]c2c(=O)[nH]c3ccc(NS(=O)(=O)c4ccc(OC)cc4)cc3c12 [Compound 50, 8-(4-Methoxy-benzenesulfonylamino)-4-oxo-4,5-dihydro-3H-pyrrolo[2,3-c]quinoline-1-ethyl carboxylate] | 1000 to 10000 |
| C#CCN(CCNC)S(=O)(=O)c1ccc2[nH]c(=O)c3[nH]cc(C(=O)OCCC)c3c2c1 [Compound 156, 8-[(2-Methylamino-ethyl)-prop-2-ynyl-sulfamoyl]-4-oxo-4,5-dihydro-3H-pyrrolo[2,3-c]quinoline-1-propyl carboxylate hydrochloride] | < 100 |
| CCOC(=O)c1c[nH]c2c(=O)[nH]c3ccc(C#CCN4CCOCC4)cc3c12 [Compound 205, 8-(3-Morpholin-4-yl-prop-1-ynyl)-4-oxo-4,5-dihydro-3H-pyrrolo[2,3-c]quinoline-1-ethyl carboxylate] | 100 to 1000 |
| O=C(NCc1ccccc1)c1c[nH]c2c(=O)[nH]c3ccccc3c12 [Compound 83, N-(Benzyl)-4-oxo-4,5-dihydro-3H-pyrrolo[2,3-c]quinoline-1-carboxamide] | 10000 to 100000 |
| CCCOC(=O)c1c[nH]c2c(=O)[nH]c3ccc(S(=O)(=O)N(C)C4CCOCC4)cc3c12 [Compound 133, 8-[Methyl-(tetrahydro-pyran-4-yl)-sulfamoyl]-4-oxo-4,5-dihydro-3H-pyrrolo[2,3-c]quinoline-1-propyl carboxylate] | < 100 |
| CCOC(=O)c1c[nH]c2c(=O)[nH]c3ccc(-c4cccc5ccccc45)cc3c12 [Compound 249, 8-Naphthalen-1-yl-4-oxo-4,5-dihydro-3H-pyrrolo[2,3-c]quinoline-1-ethyl carboxylate] | 100 to 1000 |
| CN1CCC(NS(=O)(=O)c2ccc3[nH]c(=O)c4[nH]cc(C(=O)OC5CCCC5)c4c3c2)CC1 [Compound 119, 8-(q-Methyl-piperidin-4-ylsulfamoyl)-4-oxo-4,5-dihydro-3H-pyrrolo[2,3-c]quinoline-1-cyclopentyl carboxylate] | 100 to 1000 |

Further lines, results first:

| IC50 [nM] | SMILES |
| --- | --- |
| 1000 to 10000 | CCOC(=O)c1c[nH]c2c(=O)[nH]c3ccc(C(=O)CN4CCOCC4)cc3c12 [Compound 218, 8-(2-Morpholin-4-yl-acetyl)-4-oxo-4,5-dihydro-3H-pyrrolo[2,3-c]quinoline-ethyl carboxylate] |
| 1000 to 10000 | CCOC(=O)/C=C/c1ccc2[nH]c(=O)c3[nH]cc(C(=O)OCC)c3c2c1 [Compound 65, 8-(2-Ethoxycarbonyl-vinyl)-4-oxo-4,5-dihydro-3H-pyrrolo[2,3-c]quinoline-1-ethyl carboxylate] |
| 10000 to 100000 | COC(=O)CCNC(=O)c1c[nH]c2c(=O)[nH]c3ccccc3c12 [Compound 81, 3-[(4-Oxo-4,5-dihydro-3H-pyrrolo[2,3-c]quinoline-1-carbonyl)-amino]-methyl propanoate] |
| 1000 to 10000 | CCOC(=O)c1c[nH]c2c(=O)[nH]c3ccc(C(C)=O)cc3c12 [Compound 101, 8-Acetyl-4-oxo-4,5-dihydro-3H-pyrrolo[2,3-c]quinoline-1-ethyl carboxylate] |
| 100 to 1000 | CCOC(=O)c1c[nH]c2c(=O)[nH]c3ccc(S(=O)(=O)NC4CCCCCC4)cc3c12 [Compound 31, 8-Cycloheptylsulfamoyl-4-oxo-4,5-dihydro-3H-pyrrolo[2,3-c]quinoline-1-ethyl carboxylate] |
| 100 to 1000 | C#CCN(CCO)S(=O)(=O)c1ccc2[nH]c(=O)c3[nH]cc(C(=O)OCCC)c3c2c1 [Compound 175, 8-[(2-Hydroxy-ethyl)-prop-2-ynyl-sulfamoyl]-4-oxo-4,5-dihydro-3H-pyrrolo[2,3-c]quinoline-1-propyl carboxylate] |
| 100 to 1000 | CCOC(=O)c1c[nH]c2c(=O)[nH]c3ccc(S(=O)(=O)Nc4cccc(Cl)c4)cc3c12 [Compound 10, 8-(3-Chlorophenylsulfamoyl)-4-oxo-4,5-dihydro-3H-pyrrolo[2,3-c]quinoline-1-ethyl carboxylate] |
| < 100 | CCCOC(=O)c1c[nH]c2c(=O)[nH]c3cc(F)c(S(=O)(=O)N(CCO)C(C)C)cc3c12 [Compound 185, 7-Fluoro-8-[(2-hydroxy-ethyl)-isopropyl-sulfamoyl]-4-oxo-4,5-dihydro-3H-pyrrolo[2,3-c]quinoline-1-propyl carboxylate] |
| 1000 to 10000 | CCOC(=O)c1c[nH]c2c(=O)[nH]c3cc(OC)c(I)cc3c12 [Compound 214, 8-Iodo-7-methoxy-4-oxo-4,5-dihydro-3H-pyrrolo[2,3-c]quinoline-1-ethyl carboxylate] |
| 1000 to 10000 | CCOC(=O)c1c[nH]c2c(=O)[nH]c3ccc(-c4ccccc4)cc3c12 [Compound 228, 4-Oxo-8-phenyl-4,5-dihydro-3H-pyrrolo[2,3-c]quinoline-1-ethyl carboxylate] |
| 1000 to 10000 | CCCOC(=O)c1c[nH]c2c(=O)[nH]c3ccc(S(=O)(=O)N(C)C4CCS(=O)(=O)CC4)cc3c12 [Compound 132, 8-[(1,1-Dioxo-hexahydro-1,6-thiopyran-4-yl)-methyl-sulfamoyl]-4-oxo-4,5-dihydro-3H-pyrrolo[2,3-c]quinoline-1-propyl carboxylate] |
| 1000 to 10000 | CCOC(=O)c1c[nH]c2c(=O)[nH]c3ccc(/C=C/C(=O)NCCC(=O)OC)cc3c12 [Compound 69, 8-[2-(2-Methoxycarbonyl-ethylcarbamoyl)-vinyl]-4-oxo-4,5-dihydro-3H-pyrrolo[2,3-c]quinoline-1-ethyl carboxylate] |
| 1000 to 10000 | CC(C)COC(=O)c1c[nH]c2c(=O)[nH]c3ccc(I)cc3c12 [Compound 212, 8-Iodo-4-oxo-4,5-dihydro-3H-pyrrolo[2,3-c]quinoline-1-isobutyl carboxylate] |
| < 100 | CCOC(=O)c1c[nH]c2c(=O)[nH]c3ccc(S(=O)(=O)Cc4ccccc4)cc3c12 [Compound 35, 4-Oxo-8-phenylmethanesulfonyl-4,5-dihydro-3H-pyrrolo[2,3-c]quinoline-1-ethyl carboxylate] |
